Laboratory results published in US6380387B1, “4-Pyrimidinyl-n-acyl-l phenylalanines” (Hoffmann-La Roche Inc., priority 1999, dated 2002).

Legend:
[1] = biological target: T1, VLA-4 (α4β1 integrin) (Homo sapiens, UniProt P05556+P13612); assay: Ramos (VLA-4)/VCAM-1 Cell-Based Screening Assay (cell adhesion); settings: Calcein-AM labeled Ramos cells adhering to immobilized recombinant human VCAM-1
T1 construct: Ramos cells bearing cell-surface VLA-4; endogenous in cells; host or cells: Ramos cells
T1 sequence (P13612 34-1032): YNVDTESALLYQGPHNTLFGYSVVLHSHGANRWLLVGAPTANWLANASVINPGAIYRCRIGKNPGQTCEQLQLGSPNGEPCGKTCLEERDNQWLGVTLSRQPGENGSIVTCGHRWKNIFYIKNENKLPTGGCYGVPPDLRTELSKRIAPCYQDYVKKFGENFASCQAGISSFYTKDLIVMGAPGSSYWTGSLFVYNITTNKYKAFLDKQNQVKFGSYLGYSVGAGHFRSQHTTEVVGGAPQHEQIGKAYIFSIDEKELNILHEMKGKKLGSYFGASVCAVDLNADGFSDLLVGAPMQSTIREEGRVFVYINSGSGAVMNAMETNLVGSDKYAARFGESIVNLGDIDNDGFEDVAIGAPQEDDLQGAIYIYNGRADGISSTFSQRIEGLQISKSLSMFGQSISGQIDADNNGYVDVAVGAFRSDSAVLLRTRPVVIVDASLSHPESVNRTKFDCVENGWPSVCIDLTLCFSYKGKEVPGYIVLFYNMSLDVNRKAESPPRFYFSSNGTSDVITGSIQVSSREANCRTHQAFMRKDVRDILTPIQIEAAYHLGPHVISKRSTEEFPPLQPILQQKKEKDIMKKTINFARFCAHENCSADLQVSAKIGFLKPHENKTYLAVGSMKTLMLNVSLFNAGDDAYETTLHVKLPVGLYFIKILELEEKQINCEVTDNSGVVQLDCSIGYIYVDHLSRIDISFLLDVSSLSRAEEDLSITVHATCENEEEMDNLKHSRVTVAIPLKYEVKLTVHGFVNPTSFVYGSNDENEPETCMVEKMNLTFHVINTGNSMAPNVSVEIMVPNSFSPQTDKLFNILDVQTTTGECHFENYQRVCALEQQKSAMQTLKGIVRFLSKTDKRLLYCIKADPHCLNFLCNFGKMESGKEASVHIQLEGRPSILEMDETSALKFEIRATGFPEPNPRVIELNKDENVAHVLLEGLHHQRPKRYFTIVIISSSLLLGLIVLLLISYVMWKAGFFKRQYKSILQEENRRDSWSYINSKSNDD
T1 sequence (P05556 21-798): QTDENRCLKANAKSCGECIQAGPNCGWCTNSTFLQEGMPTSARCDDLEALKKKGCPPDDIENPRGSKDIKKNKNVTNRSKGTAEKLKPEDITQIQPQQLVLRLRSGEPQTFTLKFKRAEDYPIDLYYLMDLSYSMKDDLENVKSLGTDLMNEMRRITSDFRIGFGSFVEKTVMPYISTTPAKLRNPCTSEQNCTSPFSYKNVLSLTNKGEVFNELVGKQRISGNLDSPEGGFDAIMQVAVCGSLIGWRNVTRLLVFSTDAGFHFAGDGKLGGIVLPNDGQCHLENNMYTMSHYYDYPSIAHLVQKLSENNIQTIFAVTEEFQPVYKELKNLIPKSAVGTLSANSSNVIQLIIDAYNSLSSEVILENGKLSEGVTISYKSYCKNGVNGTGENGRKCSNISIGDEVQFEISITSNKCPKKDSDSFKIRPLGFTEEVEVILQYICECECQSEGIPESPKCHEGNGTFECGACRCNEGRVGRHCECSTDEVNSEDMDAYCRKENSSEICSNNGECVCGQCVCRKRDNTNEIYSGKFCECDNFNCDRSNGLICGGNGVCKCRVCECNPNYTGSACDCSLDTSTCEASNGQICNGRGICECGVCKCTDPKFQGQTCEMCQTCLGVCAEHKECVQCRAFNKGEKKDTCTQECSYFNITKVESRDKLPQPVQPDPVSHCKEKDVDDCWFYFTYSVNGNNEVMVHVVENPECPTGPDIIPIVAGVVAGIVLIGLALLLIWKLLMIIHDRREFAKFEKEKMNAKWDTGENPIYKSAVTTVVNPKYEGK
Experimental: Ramos (VLA-4)/VCAM-1 Cell-Based Screening Assay Protocol
Soluble recombinant human VCAM-1 (mixture of 5- and 7-Ig domain) was purified from CHO cell culture media by inmmunoaffinity chromatography and maintained in a solution containing 0.1 M Tris-glycine (pH 7.5), 0.1 M NaCl, 5 mM EDTA, 1 mM PMSF, […] NaN3 and 10 μg/mL leupeptin. Calcein-AM was purchased from Molecular Probes Inc.
VLA-4 (α4β1 integrin) antagonist activity, defined as ability to compete with cell-surface VLA-4 for binding to immobilized VCAM-1, was quantitated using a Ramos-VCAM-1 cell adhesion assay. Ramos cells bearing cell-surface VLA-4, were labeled with a fluorescent dye (Calcein-AM) and allowed to bind VCAM-1 in the presence or absence of test compounds. A reduction in fluorescence intensity associated with adherent cells (% inhibition) reflected competitive inhibition of VLA-4 mediated cell adhesion by the test compound.
Initially, this entailed coating 96 well plates (Nunc Maxisorp) with recombinant human VCAM-1 (100 ng in 100 μl PBS), sealing each plate and allowing the plates to stand at 4° C. for ≈18 hr. The VCAM-coated plates were subsequently washed twice with 0.05% Tween-20 in PBS, and then blocked for 1 hr (room temperature) with 200 μl of Blocking Buffer (1% BSA/0.02% thimerosal) to reduce non-specific binding. Following the incubation with Blocking Buffer, plates were inverted, blotted and the remaining buffer aspirated. Each plate was then washed with 300 μl PBS, inverted and the remaining PBS aspirated.
Test compounds were dissolved in 100% DMSO and then diluted 1:25 in VCAM Cell Adhesion Assay Buffer (4 mM CaCl2, 4 mM MgCl2 in 50 mM TRIS-HCl, pH 7.5) (final DMSO=4%). A series of eight 1:4 dilutions were performed for each compound (general concentration range of 1 nM-12,500 nM). 100 μl/well of each dilution was added to the VCAM-coated plates, followed by 100 μl of Ramos cells (200,000 cells/well in 1% BSA/PBS). Plates containing test compounds and Ramos cells were allowed to incubate for 45 min at room temperature, after which 165 μl/well PBS was added. Plates were inverted to remove non-adherent cells, blotted and 300 μl/well PBS added. Plates were again inverted, blotted and the remaining buffer gently aspirated. 100 μl Lysis Buffer (0.1% SDS in 50 mM TRIS-HCl, pH 8.5) was added to each well and agitated for 2 min on a rotary shaking platform. The plates were then read for fluorescence intensity on a Cytofluor 2300 (Millipore) fluorecence measurement system (excitation=485 nm, emission=530 nm). The results are shown in the following Table II, where (A=IC50<100 nM, B=IC50<10000 nM): […]

Row | IC50 [1] [µM] | melting point [°C] | SMILES
1 | < 0.1 |  | Cc1c(-c2ccc(C[C@H](NC(=O)c3c(Cl)cccc3Cl)C(=O)O)cc2)c(=O)n(C)c(=O)n1C [Example 6, N-[(2,6-dichlorophenyl)carbonyl]-4-(1,3,6-trimethyl-2,4-dioxo-5-pyrimidinyl)-L-phenylalanine]
2 | < 0.1 |  | COCCC1(C(=O)N[C@@H](Cc2ccc(-c3c(C)n(C)c(=O)n(C)c3=O)cc2)C(=O)O)CCCC1 [Example 7, N-[[1-(2-methoxyethyl)cyclopentyl]carbonyl]-4-(1,3,6-trimethyl-2,4-dioxo-5-pyrimidinyl)-L-phenylalanine]
3 | < 0.1 | 240 to 242 | Cc1cccc(Br)c1C(=O)N[C@@H](Cc1ccc(-c2c(C)n(C)c(=O)n(C)c2=O)cc1)C(=O)O [Example 8, N-[(2-bromo-6-methylphenyl)carbonyl]-4-(1,3,6-trimethyl-2,4-dioxo-5-pyrimidinyl)-L-phenylalanine]
4 | < 0.1 |  | Cc1cccc(Cl)c1C(=O)N[C@@H](Cc1ccc(-c2c(C)n(C)c(=O)n(C)c2=O)cc1)C(=O)O [Example 9, N-[(2-chloro-6-methylphenyl)carbonyl]-4-(1,3,6-trimethyl-2,4-dioxo-5-pyrimidinyl)-L-phenylalanine]
5 | < 0.1 | 127 to 133 | CCc1cccc(C)c1C(=O)N[C@@H](Cc1ccc(-c2c(C)n(C)c(=O)n(C)c2=O)cc1)C(=O)O [Example 10, N-[(2-ethyl-6-methylphenyl)carbonyl]-4-(1,3,6-trimethyl-2,4-dioxo-5-pyrimidinyl)-L-phenylalanine]
6 | < 0.1 |  | Cc1cccc(C(C)C)c1C(=O)N[C@@H](Cc1ccc(-c2c(C)n(C)c(=O)n(C)c2=O)cc1)C(=O)O [Example 11, N-[[2-(2-methylethyl)-6-methylphenyl]carbonyl]-4-(1,3,6-trimethyl-2,4-dioxo-5-pyrimidinyl)-L-phenylalanine]
7 | < 0.1 |  | Cc1c(-c2ccc(C[C@H](NC(=O)c3c(F)cccc3F)C(=O)O)cc2)c(=O)n(C)c(=O)n1C [Example 12, N-[(2,6-difluorophenyl)carbonyl]-4-(1,3,6-trimethyl-2,4-dioxo-5-pyrimidinyl)-L-phenylalanine]
8 | < 0.1 | 218 to 220 | Cc1c(-c2ccc(C[C@H](NC(=O)c3c(F)cccc3C(F)(F)F)C(=O)O)cc2)c(=O)n(C)c(=O)n1C [Example 13, N-[(2-fluoro-6-(trifluoromethyl)phenyl)carbonyl]-4-(1,3,6-trimethyl-2,4-dioxo-5-pyrimidinyl)-L-phenylalanine]
9 | < 10 |  | Cc1c(-c2ccc(C[C@H](NC(=O)c3c(C(C)C)cccc3C(C)C)C(=O)O)cc2)c(=O)n(C)c(=O)n1C [Example 14, N-[[2,6-di-(2-methylethyl)phenyl]carbonyl]-4-(1,3,6-trimethyl-2,4-dioxo-5-pyrimidinyl)-L-phenylalanine]
10 | < 0.1 | 187 to 190 | CCc1cccc(Cl)c1C(=O)N[C@@H](Cc1ccc(-c2c(C)n(C)c(=O)n(C)c2=O)cc1)C(=O)O [Example 15, N-[(2-chloro-6-ethylphenyl)carbonyl]-4-(1,3,6-trimethyl-2,4-dioxo-5-pyrimidinyl)-L-phenylalanine]
11 | < 0.1 | 225 to 227 | CCCc1cccc(Cl)c1C(=O)N[C@@H](Cc1ccc(-c2c(C)n(C)c(=O)n(C)c2=O)cc1)C(=O)O [Example 16, N-[(2-chloro-6-propylphenyl)carbonyl]-4-(1,3,6-trimethyl-2,4-dioxo-5-pyrimidinyl)-L-phenylalanine]
12 | < 0.1 |  | CCn1c(C)c(-c2ccc(C[C@H](NC(=O)c3c(Cl)cccc3Cl)C(=O)O)cc2)c(=O)n(CC)c1=O [Example 18, N-[(2,6-dichlorophenyl)carbonyl]-4-(1,3-diethyl-6-methyl-2,4-dioxo-5-pyrimidinyl)-L-phenylalanine]
13 | < 0.1 |  | CCn1c(C)c(-c2ccc(C[C@H](NC(=O)c3c(C)cccc3Cl)C(=O)O)cc2)c(=O)n(CC)c1=O [Example 19, N-[(2-chloro-6-methylphenyl)carbonyl]-4-(1,3-diethyl-6-methyl-2,4-dioxo-5-pyrimidinyl)-L-phenylalanine]
14 | < 0.1 |  | CCn1c(C)c(-c2ccc(C[C@H](NC(=O)C3(CCOC)CCCC3)C(=O)O)cc2)c(=O)n(CC)c1=O [Example 20, 4-(1,3-diethyl-6-methyl-2,4-dioxo-5-pyrimidinyl)-N-[[1-(2-methoxyethyl)cyclopentyl]carbonyl]-L-phenylalanine]
15 | < 0.1 | 125 to 128 | Cn1c(C(F)(F)F)c(-c2ccc(C[C@H](NC(=O)c3c(Cl)cccc3Cl)C(=O)O)cc2)c(=O)n(C)c1=O [Example 21, N-[1-(2,6-dichlorophenyl)carbonyl]-4-(1,3-dimethyl-2,4-dioxo-6-(trifluoromethyl)-5-pyrimidinyl)-L-phenylalanine]
16 | < 0.1 | 243 to 247 | Cc1cccc(Cl)c1C(=O)N[C@@H](Cc1ccc(-c2c(C(F)(F)F)n(C)c(=O)n(C)c2=O)cc1)C(=O)O [Example 22, N-[(2-chloro-6-methylphenyl)carbonyl]-4-[1,3-dimethyl-2,4-dioxo-6-(trifluoromethyl)-5-pyrimidinyl]-L-phenylalanine]
17 | < 0.1 | 122 to 125 | Cn1c(C(F)(F)F)c(-c2ccc(C[C@H](NC(=O)c3c(F)cccc3C(F)(F)F)C(=O)O)cc2)c(=O)n(C)c1=O [Example 23, N-[[2-fluoro-6-(trifluoromethyl)phenyl]carbonyl]-4-(1,3-dimethyl-2,4-dioxo-6-(trifluoromethyl)-5-pyrimidinyl)-L-phenylalanine]
18 | < 10 | 109 to 111 | Cc1cc(C[C@H](NC(=O)c2c(C)cccc2Cl)C(=O)O)ccc1-c1cn(C)c(=O)n(C)c1=O [Example 24, N-[(2-chloro-6-methylphenyl)carbonyl]-4-(1,3-dimethyl-2,4-dioxo-5-pyrimidinyl)-3-methyl-L-phenylalanine]
19 | < 0.1 |  | Cc1cc(C[C@H](NC(=O)c2c(Cl)cccc2Cl)C(=O)O)ccc1-c1cn(C)c(=O)n(C)c1=O [Example 25, N-[(2,6-dichlorophenyl)carbonyl]-4-(1,3-dimethyl-2,4-dioxo-5-pyrimidinyl)-3-methyl-L-phenylalanine]
20 | < 10 |  | Cc1cc(C[C@H](NC(=O)c2c(Cl)cccc2Cl)C(=O)O)ccc1-c1c(C)n(C)c(=O)n(C)c1=O [Example 26, N-[(2,6-dichlorophenyl)carbonyl]-4-(1,3,6-trimethyl-2,4-dioxo-5-pyrimidinyl)-3-methyl-L-phenylalanine]
21 | < 10 |  | CCOC(=O)[C@H](Cc1ccc(-c2c(C)n(C)c(=O)n(C)c2=O)cc1)NC(=O)c1c(Cl)cccc1Cl [Example 27, N-[(2,6-dichlorophenyl)carbonyl]-4-(1,3,6-trimethyl-2,4-dioxo-5-pyrimidinyl)-L-phenylalanine ethyl ester]
